How the values were obtained:
[1] = system: ethanol self-administration in rats; settings: icv administration; cited from earlier work
[2] = molecular target: T1, recombinant human NPY Y2 receptors (Homo sapiens, UniProt P49146); assay: Scintillation proximity [35S]GTPγS binding assay (inhibition of 0.5 nM NPY-stimulated [35S]GTPγS binding); assay type: biochemical; settings: 10 μM compound, CHO-C4 membranes, read-out: [%] inhibiton at 10 μM
T1 construct: expressed in transfected cells; host or cells: CHO-C4 cells (membrane preparation)
T1 sequence (P49146 1-381): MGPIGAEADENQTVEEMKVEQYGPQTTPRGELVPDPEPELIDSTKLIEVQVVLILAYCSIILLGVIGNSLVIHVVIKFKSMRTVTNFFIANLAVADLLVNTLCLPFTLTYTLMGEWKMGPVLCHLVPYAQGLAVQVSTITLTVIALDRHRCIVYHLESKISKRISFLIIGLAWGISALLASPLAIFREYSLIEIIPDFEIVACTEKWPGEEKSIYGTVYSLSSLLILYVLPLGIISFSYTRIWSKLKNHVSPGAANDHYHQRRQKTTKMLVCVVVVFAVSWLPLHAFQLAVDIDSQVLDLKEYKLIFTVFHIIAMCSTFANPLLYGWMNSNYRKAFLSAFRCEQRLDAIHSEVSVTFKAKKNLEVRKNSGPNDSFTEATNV
Protocol: Preparation of Membranes: CHO—C4 cells expressing recombinant human NPY Y2 receptors were used to prepare membranes for the GTPγS assay. Cells were grown to 80-95% confluency on 15-cm (225 cm^2) tissue culture plates. After aspiration of the culture medium, cells were washed twice with 18 ml ice-cold phosphate-buffered saline (PBS), scraped off and suspended in 3 ml ice-cold PBS in pre-cooled centrifuge tubes. The dishes were rinsed with 2 ml ice-cold PBS per dish and the washings were combined with the PBS cell suspension from above. Cells pooled from 5-7 dishes were centrifuged for 5 min at 10,000 rpm (12,000 g) in a Sorvall RC5B centrifuge using an SS34 rotor at 4° C. The cell pellet was resuspended in 5 ml ice-cold buffer (20 mM HEPES, 10 mM EDTA; pH 7.4) by vortexing (2-5 sec), homogenized using a Polytron (step 4 for 20-30 sec), and ice-cold buffer added to 25 ml. The suspension was centrifuged again for 20 min at 18,000 rpm (39,000 g) at 4° C. and the pellet resuspended in 5 ml ice-cold buffer (20 mM HEPES, 0.1 mM EDTA; pH 7.4) by vortexing (2-5 sec), homogenized with a Polytron (step 4 for 10 sec), and ice-cold buffer added to 25 ml. The suspension was centrifuged a third time for 20 min at 18,000 rpm (39,000 g) at 4° C. The pellet was resuspend in 1 ml ice-cold buffer (20 mM Hepes, 0.1 mM EDTA; pH 7.4) by vortexing (5-8 sec). Two to five resuspended pellets were combined and homogenized using a Polytron (step 4 for 15-25 sec). A small aliquot (20-50 μl) was removed for protein determination by the Coomassie Plus Protein Assay Reagent (Pierce) using BSA as standard. The membrane suspension was aliquoted in pre-cooled (on dry ice) Eppendorf tubes (0.25-1 ml/tube affording approximately 0.5-2 mg of membrane protein/tube). The pellets were frozen and stored at −80° C.
Scintillation proximity [^35S]GTPγS binding assay: Frozen membranes from CHO—C4 cells expressing recombinant human NPY Y2 receptors (2 mg for four 96-well plates) were thawed on ice. Thawed membranes were pipetted into 10 ml of assay buffer (20 mM. HEPES, 10 mM MgCl2, 100 mM NaCl, pH 7.4) and homogenized briefly using a Polytron. The final assay mixture was prepared in 96-well microtiter plates (Isoplate Wallac, Perkin Elmer). The composition of the assay mixtures in a final volume of 250 μl per well was as follows: 20 mM HEPES, 10 mM MgCl2, 100 mM NaCl, pH 7.4, 30 μM GDP, 1 mg/ml BSA (added fresh), 5 μg membrane protein, 1.5 mg Wheatgerm agglutinin SPA beads (Amersham), 0.45 nM [^35S]GTPγS (Amersham, SJ1308, 1000 Ci/mmol, stabilized solution), and the test compounds (agonists and/or antagonists) at the appropriate concentrations. The samples were incubated at room temperature for 90 min by shaking, after which the SPA beads were sedimented by centrifugation in an Eppendorf 5804 centrifuge at 2700 rpm for 10 min at room temperature. After 60 min the plates were counted in a TopCount (Canberra). Basal [^35S]GTPγS binding was measured in the absence of agonist (NPY). Non-specific binding was measured in the presence of excess (10 μM) unlabelled GTPγS (Sigma). Nonspecific binding never exceeded 10% of basal binding and was thus not subtracted from the experimental data. Antagonists were tested for the inhibition of 0.5 nM NPY-stimulated [^35S]GTPγS binding. Antagonist inhibition curves were analyzed by non-linear regression using GraphPad Prism software (Version 4.0, GraphPad Software Inc., CA, USA).
Antagonistic activity of compounds of the present invention was examined by the Scintillation proximity [35S]GTPγS binding assay as described above (inhibition of 0.5 nM NPY-stimulated [^35S]GTPγS binding). The table below represents percentages of inhibition at a concentration of 10 μM.

[3] = system: normal gastric emptying in mice; assay: Normal gastric emptying in mice by Near Infrared FluoRescent (NIRF) imaging; assay type: in vivo, C57/BI6 mice; settings: imaging 15 minutes after gavage, vehicle control 70%
Protocol: The effect of Example 33, (−)-1-(3,5-Dimethyl-isoxazol-4-yl)-3-{4-[2-(S)-2,5-dioxo-4-phenyl-4-propyl-imidazolidin-1-yl)-acetyl]-3-fluoro-phenyl}-urea, on normal gastric emptying in mice is assessed by means of Near Infrared FluoRescent (NIRF) imaging. The NIRF method is described in detail in the publication by Gremlich et al (J. Mol. Imaging, 2004, 3(4), 303-311). In short, C57/BI6 mice are gavaged 0.2 ml test meal (Isosource Standard meal, Novartis Medical Nutrition, Germany) that contains 7.5 g methylcellulose and 5 g Tentagel fluorescent beads (TentaGel MB-NH2, particle size […], capacity 0.2-0.3 mmol/g; Rapp Polymere, Tubingen, Germany) per 100 ml and immediately returned to their cages. 15 minutes after the gavage mice are anaesthetized using isoflurane and prepared for NIRF imaging. Images from the gastric and intestinal areas are taken and the percentage of food emptied from the stomach is calculated as the ratio of fluorescence measured in the intestines and the stomach. Example 33 was dissolved in 1-methyl-2-pyrrolidon, polyethyleenglycol-300 and 5% dextrose solution (w/v) in the following proportion (v/v): 10%, 30% and 60% respectively and injected intraperitoneally 30 minutes before the administration of the test meal. In the vehicle control group (n=6), 70% of the meal was emptied from the stomach.

inhibition at 10 µM [2] [%] | Compound | effect on ethanol self-administration [1] | percentage of the meal emptied from the stomach ([3]; 0.3 mg/kg intraperitoneally 30 minutes before test meal) [%] | percentage of the meal emptied from the stomach ([3]; 1 mg/kg intraperitoneally 30 minutes before test meal) [%]
 | N=C(N)NCCC[C@H](NC(=O)CC1(CC(=O)N2CCN(C3c4ccccc4NC(=O)c4ccccc43)CC2)CCCC1)C(=O)NCCn1c(=O)n(-c2ccccc2)n(-c2ccccc2)c1=O (stereo partly drawn) [BIIE0246] | dose dependently reduced ethanol self-administration |  | 
95 | CCC[C@@]1(c2ccccc2)NC(=O)N(CC(=O)c2ccc(NC(=O)Nc3c(C)noc3C)cc2F)C1=O [Example 33, (−)-1-(3,5-Dimethyl-isoxazol-4-yl)-3-{4-[2-((S)-2,5-dioxo-4-phenyl-4-propyl-imidazolidin-1-yl)-acetyl]-3-fluoro-phenyl}-urea] |  | 80 | 81
64 | Cc1cnn(C)c1CC(=O)Nc1ccc(C(=O)CN2C(=O)NC(c3ccccc3)(c3ccccc3)C2=O)cc1 [Example 49, 2-(2,4-Dimethyl-2H-pyrazol-3-yl)-N-{4-[2-(2,5-dioxo-4,4-diphenyl-imidazolidin-1-yl)-acetyl]-phenyl}-acetamide] |  |  | 
80 | COc1ccc(F)cc1CC(=O)Nc1ccc(C(=O)CN2C(=O)NC(c3ccccc3)(c3ccccc3)C2=O)cc1 [Example 50, N-{4-[2-(2,5-Dioxo-4,4-diphenyl-imidazolidin-1-yl)acetyl]-phenyl}-2-(5-fluoro-2-methoxy-phenyl)-acetamide] |  |  | 

Reference: patent publication US20090099243A1, “ORGANIC COMPOUNDS” (priority 2007, published 2009)
